In the oligonucleotide strings, read from the 5' end, every base follows the letter of its sugar. An asterisk marks phosphorothioate; unmarked linkages are phosphodiester. Other units and linkages are bracketed, terminal groups are in braces. A string of capitals states the bases alone. e = 2'-O-(2-methoxyethyl) (MOE); [5mC] = 5-methylcytosine; d = 2'-deoxy (DNA)

The test system of data set [1] is T47D cells. Briefly: Cell cycle assay in T47D cells. It is filed as cell-based, human. The note with it: 150 nM, 48 hours, relative to untreated control. On the procedure:
BJ cells were routinely cultured in MEM high glucose with 2 mM L-glutamine and Earle's BSS adjusted to contain 1.5 g/L sodium bicarbonate and supplemented with 10% fetal bovine serum, 0.1 mM non-essential amino acids and 1.0 mM sodium pyruvate (all media and supplements from Invitrogen Life Technologies, Carlsbad, Calif.). B16-F10 cells were routinely cultured in DMEM high glucose (Invitrogen Life Technologies, Carlsbad, Calif.) supplemented with 10% fetal bovine serum (Invitrogen Life Technologies, Carlsbad, Calif.). T47D cells were cultured in DMEM High glucose media (Invitrogen Life Technologies, Carlsbad, Calif.) supplemented with 10% fetal bovine serum. […] Cells were plated on collagen-coated 24-well plates (Falcon-Primaria #3047, BD Biosciences, Bedford, Mass.) at approximately 50,000 cells per well and allowed to attach to wells overnight.
In further studies, additional cell lines were treated with oligomeric compounds targeted against miRNAs to assess the effects of each oligomeric compound on cell cycling. BJ, B16, T47D, and HeLa cells were cultured and transfected as described above. […] T47Dp53 cells are T47D cells that have been transfected with and selected for maintenance of a plasmid that expresses a wildtype copy of the p53 gene (for example, pCMV-p53; Clontech, Palo Alto, Calif.), using standard laboratory procedures. BJ cells were treated with 200 nM of each oligomeric compound, and T47D, T47Dp53, HeLa, and B16 cells were treated with 150 nM of each oligomeric compound. The human foreskin fibroblast BJ cell line represents a non-cancer cell line, while HeLa, T47D, T47Dp53 cells and the mouse melanoma cell line B16-F10 represent cancerous cell lines. For comparison, oligomeric compounds ISIS 183891 (SEQ ID NO: 847) and ISIS 285717 ([…]; herein incorporated as SEQ ID NO: 857), both targeting the kinesin-like 1/Eg5 mRNA, involved in cell cycling, were used as positive controls. The random-mer ISIS 29848 was used as a negative control. Additionally, the oligomeric compounds ISIS Number 25690 ([…]; herein incorporated as SEQ ID NO: 858) and ISIS Number 25691 ([…]; herein incorporated as SEQ ID NO: 859), targeted to nucleotides 3051-3070 and 3085-3104, respectively, of the mRNA encoding the Drosha RNase III (GenBank Accession NM_013235.2, incorporated herein as SEQ ID NO: 860) were also tested. ISIS Number 25690 and ISIS Number 25691 are 5-10-52′-MOE gapmer compounds, 20 nucleotides in length, with phosphorothioate internucleoside linkages throughout the oligomeric compound. All cytidine residues are 5-methylcytidines. Transfections were performed using the methods described herein. Cells were prepared for flow cytometry 48-hours after oligonucleotide treatment. Results of these studies are shown in Table 35, where data are expressed as percentage of cells in each phase relative to the untreated control cells in that phase.

Data set [2] concerns mir-15a miRNA. The data set is described as follows: pGL3-mir-15a sensor luciferase assay in HeLa cells. It is filed as cell-based, human. As to conditions: pGL3-mir-15a sensor-expressing HeLa cells. An excerpt: In order to assess the ability of miRNAs to bind predicted miRNA binding sites and regulate the expression of the luciferase reporter, in some embodiments, expression systems based on the pGL3-Control (Promega Corp., Madison Wis.) reporter vector and comprising either a mir-15a, mir-21, or a mir-23b miRNA binding site were developed and used in transient transfections of HeLa cells to determine whether the endogenous mir-15a, mir-21, or mir-23b miRNAs, respectively, could repress luciferase reporter gene expression.
The pGL3-mir-15a sensor plasmid was created by cloning the sequence ([…]; SEQ ID NO: 369), complementary to the mir-15a miRNA, into the Xba site of the pGL3-Control plasmid, placing the potential miRNA-binding site in the 3′UTR of the luciferase reporter. This reporter plasmid was used to transfect HeLa cells and it was observed that the endogenous mir-15a miRNA was able to inhibit luciferase expression from the pGL3-mir-15a sensor plasmid. Thus, to further evaluate the ability of the mir-15a miRNA to bind this target site encoded by the pGL3-mir-15a sensor plasmid, and to assess the ability of oligomeric compounds to interfere with mir-15a-mediated silencing, pGL3-mir-15a sensor-expressing HeLa cells were treated with varying concentrations (3-, 10- or 30 nM) of the following oligomeric compounds: ISIS Number 327951 (SEQ ID NO: 369) is a uniform 2′-MOE compound targeting the mature mir-15a-1 miRNA. ISIS Numbers 356213 (SEQ ID NO: 878), 356215 (SEQ ID NO: 879), 356216 (SEQ ID NO: 880), 356218 (SEQ ID NO: 881), 356221 (SEQ ID NO: 882), 356227 (SEQ ID NO: 883) and 356229 (SEQ ID NO: 884) are phosphorothioate, uniform 2′-MOE oligomeric compounds designed and synthesized to target the entire length of the mir-15a pri-miRNA molecule (described in detail in Example 28, below). […] The data presented in Table 42 are the average of three trials and are presented as percent untreated control (luciferase plasmid only, not treated with oligomeric compound) luciferase expression, normalized to pRL-CMV levels.

Consider “327902 (antisense eG*eG*e[5mC]*eT*eG*eT*e[5mC]*eA*eA*eT*eT*e[5mC]*eA*eT*eA*eG*eG*eT*e[5mC]*eA*eG) [compound 327902]”, for which, in data set [1], the “% cells in cell cycle phase G1” value worked out at 75%, the “% cells in cell cycle phase G2/M” value was determined as 116%, the “% cells in cell cycle phase S” value amounted to 120% and the “% cells in cell cycle phase aneuploid” value amounted to 162%. In addition, the “% cells in cell cycle phase subG1” value in data set [1] worked out at 102%.
For “327901 (antisense eT*eG*eA*eG*e[5mC]*eT*eA*e[5mC]*eA*eG*eT*eG*e[5mC]*eT*eT*e[5mC]*eA*eT*e[5mC]*eT*e[5mC]*eA) [compound 327901]”, the Relative luciferase activity was 83.6 in data set [2] (3 nM), 96.6 in data set [2] (10 nM) and 88.2 in data set [2] (30 nM).
On to “327951 (antisense e[5mC]*eA*e[5mC]*eA*eA*eA*e[5mC]*e[5mC]*eA*eT*eT*eA*eT*eG*eT*eG*e[5mC]*eT*eG*e[5mC]*eT*eA) [compound 327951]”, for which the Relative luciferase activity in data set [2] (3 nM) is 151.0; in data set [2] (10 nM), 207.6; in data set [2] (30 nM), 137.1.
For the substance “342673 (antisense eA*eG*eA*e[5mC]*eT*eA*eG*e[5mC]*eG*eG*eT*eA*eT*e[5mC]*eT*eT*eT*eA*eT*e[5mC]*e[5mC]*e[5mC]) [compound 342673]”, the Relative luciferase activity in data set [2] (3 nM) is 104.5; in data set [2] (10 nM), 82.6; in data set [2] (30 nM), 85.7.
In the case of “327905 (antisense e[5mC]*eA*eG*eA*e[5mC]*eT*e[5mC]*e[5mC]*eG*eG*eT*eG*eG*eA*eA*eT*eG*eA*eA*eG*eG*eA) [compound 327905]”, in data set [1], the “% cells in cell cycle phase G1” value was found to be 97%, the “% cells in cell cycle phase G2/M” value is reported as 103%, the “% cells in cell cycle phase S” value amounted to 101% and the “% cells in cell cycle phase aneuploid” value is 164%. In addition, in data set [1], the “% cells in cell cycle phase subG1” value turned out to be 81%.
For “328759 (antisense eG*eA*eG*eG*eG*dA*dT*dT*dG*dT*dA*dT*dG*dA*dA*e[5mC]*eA*eT*e[5mC]*eT) [compound 328759]” the same measures were 86%, 122%, 87%, 223% and 123%.

The record behind these values is patent publication US8178506B2, “Oligomeric compounds and compositions for use in modulation of small non-coding RNAs” (Regulus Therapeutics Inc., priority 2003, dated 2012).
